Test results: the supplement of paper PMC10307832

Tests used:
Test in all cases: relative viability (nuclei count vs DMSO), 5 days (fraction); higher = more cells survive
Veliparib + Dasatinib = compound: C[C@]1(c2nc3c(C(N)=O)cccc3[nH]2)CCCN1 [Veliparib] + Cc1nc(Nc2ncc(C(=O)Nc3c(C)cccc3Cl)s2)cc(N2CCN(CCO)CC2)n1 [Dasatinib] (partner 0.075 µM)
Method in brief: (§1)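 Dosing by pin tool came one day after lung cancer cell lines were seeded in 1536-well plates, using either one drug or a fixed anchor-drug dose plus five library-drug doses (not always all listed) in √10 steps. After 5 days, nuclei were counted on 4× images. Relative viability is treated-well nuclei count divided by vehicle-well nuclei count, and values are medians of duplicate plates.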

[1] = compound: COC1=CC=C(C=C1)CN2C=CC3=C2C=C(C=C3)C(=O)NO + O=C(CCCCCCC(=O)Nc1ccccc1)NO [Vorinostat] (partner 1 µM)
Method in brief: as §1

Veliparib + Decitabine = compound: C[C@]1(c2nc3c(C(N)=O)cccc3[nH]2)CCCN1 [Veliparib] + Nc1ncn([C@H]2C[C@H](O)[C@@H](CO)O2)c(=O)n1 [Decitabine] (partner 2 µM)
Method in brief: as §1

Veliparib + Vorinostat = compound: C[C@]1(c2nc3c(C(N)=O)cccc3[nH]2)CCCN1 [Veliparib] + O=C(CCCCCCC(=O)Nc1ccccc1)NO [Vorinostat] (partner 1 µM)
Method in brief: as §1

| Cell Line | relative viability (Veliparib + Dasatinib; first compound 0.02 µM) | relative viability (Veliparib + Dasatinib; first compound 0.06325 µM) | relative viability (Veliparib + Dasatinib; first compound 0.2 µM) | relative viability (Veliparib + Dasatinib; first compound 0.6325 µM) | relative viability (Veliparib + Dasatinib; first compound 2 µM) | relative viability ([1]; first compound 0.08 µM) | relative viability ([1]; first compound 0.253 µM) | relative viability ([1]; first compound 0.8 µM) | relative viability ([1]; first compound 2.53 µM) | relative viability ([1]; first compound 8 µM) | relative viability (Veliparib + Decitabine; first compound 0.02 µM) | relative viability (Veliparib + Decitabine; first compound 0.06325 µM) | relative viability (Veliparib + Decitabine; first compound 0.2 µM) | relative viability (Veliparib + Decitabine; first compound 0.6325 µM) | relative viability (Veliparib + Decitabine; first compound 2 µM) | relative viability (Veliparib + Vorinostat; first compound 0.02 µM) | relative viability (Veliparib + Vorinostat; first compound 0.06325 µM) | relative viability (Veliparib + Vorinostat; first compound 0.2 µM) | relative viability (Veliparib + Vorinostat; first compound 0.6325 µM) | relative viability (Veliparib + Vorinostat; first compound 2 µM) |
| --- | --- | --- | --- | --- | --- | --- | --- | --- | --- | --- | --- | --- | --- | --- | --- | --- | --- | --- | --- | --- |
| NCI-H647 | 0.164 | 0.187 | 0.243 | 0.165 | 0.192 | 0.457 | 0.738 | 0.802 | 0.702 | 0.515 | 0.376 | 0.346 | 0.298 | 0.299 | 0.26 | 0.584 | 0.606 | 0.385 | 0.366 | 0.427 |
| NCI-H2347 | 0.327 | 0.266 | 0.275 | 0.336 | 0.315 | 0.502 | 0.611 | 0.736 | 0.796 | 0.559 | 0.625 | 0.556 | 0.616 | 0.582 | 0.587 | 0.716 | 0.545 | 0.561 | 0.616 | 0.637 |
| A-427 |  | 0.714 | 0.699 | 0.657 | 0.539 | 0.694 |  | 0.826 | 0.847 | 0.794 | 0.557 | 0.473 | 0.593 | 0.492 | 0.546 | 0.813 | 0.867 | 0.867 | 0.842 | 0.934 |
| NCI-H2009 | 0.332 | 0.319 | 0.331 | 0.29 | 0.292 | 0.498 | 0.751 | 0.722 | 0.75 | 0.708 | 0.344 | 0.37 | 0.366 | 0.329 | 0.361 | 0.771 | 0.65 | 0.709 | 0.708 | 0.795 |
| NCI-H522 | 0.887 | 0.904 | 0.963 | 0.831 | 0.812 |  | 0.982 | 1.03 | 0.909 | 0.845 | 0.663 | 0.561 | 0.547 | 0.622 | 0.678 | 0.832 | 0.825 | 0.736 | 0.84 | 0.979 |
| NCI-H1993 | 0.496 | 0.571 | 0.537 | 0.64 | 0.522 | 0.527 | 1.21 | 0.901 | 0.842 | 0.73 |  | 0.526 | 0.614 | 0.541 | 0.567 |  | 0.775 | 0.966 | 0.804 | 0.688 |
| NCI-H2087 | 0.738 | 0.731 | 0.886 | 0.788 | 0.942 | 0.276 | 0.649 | 1.26 | 0.809 | 0.663 | 0.255 | 0.244 | 0.237 | 0.2 | 0.174 | 0.504 | 0.747 | 0.875 | 0.645 | 0.726 |
| LCLC-97TM1 | 0.848 | 0.845 | 0.895 | 0.653 | 0.864 |  | 0.659 | 0.772 | 0.557 | 0.438 | 0.205 | 0.206 | 0.237 | 0.208 | 0.194 | 0.455 | 0.797 | 0.849 | 0.632 | 0.637 |
